Results reported in patent US8193147B2, “Use of copolymer 1 for treatment of muscular dystrophy” (Hadasit Medical Research Services & Development Ltd., priority 2007, dated 2012).

Legend:
Type in all cases: in vivo, mouse
WT and dy^2J mice = test: Observation of side effects during treatment; details: treated group; 200 μg GA IP three times a week for 13 weeks
Description: (§1) At 5 weeks of age WT and dy^2J animals were randomly divided to the treated and control groups. The animals were treated three times a week for 13 weeks.
No animal had paralysis with inability to reach food or water or dramatic weight loss (more than 10% weight loss between two weightings or 20% or more than its initial weight) or any other severe stress signs, that would necessitate withdrawal of the animal from the experiment.

[1] = system: HO (homozygote) dy^2j mice; test: Motion analysis by video-recording (EthoVision), HO dy2J mice
Description: (§2) Population: Twenty C57BL old mice were randomly divided into 4 groups (5 in each group):
as §1
(§3) Motion analysis by video-recording. At the end of the experiment (19 week of age) animal mobility and well-being were video recorded for 10 minutes sessions. The video films were analyzed using the EthoVision system (NBT-New Biotechnology, Jerusalem, Israel, video tracking system recording of activity and movement). Quantitative parameters of mobility of the animals including total distance, maximum distance in 0.2 second, average and peak velocity were calculated.

dy^2j mice = test: Muscle biopsy histology (Hematoxylin-Eosin), muscular fibrosis; details: dy^2j mice treated with GA for 12 weeks vs untreated; biopsies in week 17; FIG. 7
Description: Tissue analysis. […]
Muscle biopsies. Muscle biopsies were obtained from the hind limbs and were tested for:
1. Muscle histology hematoxylin and eosin stain (H&E) and Gommori trichrome stains

[2] = system: HO (homozygote) dy^2j mice; test: Grip strength of hind and fore limbs (Grip Strength Meter) in GA-treated dy2J mice; details: for hind limbs strength (muscle grip strength per body weight): between week 7 and week 19, p=0.0017, FIG. 1A
Description: as §2
1. WT mice—treated saline 100 μl/IP
2. WT mice—treated with 200 μg GA/IP
3. HO mice—treated Saline 100 μl/IP
4. HO mice—treated with 200 μg GA/IP
as §1
Measurement of muscle strength (blind measurement). Once a week weight gain and total peak force (in Gram force/g bodyweight) were determined using electronic Grip Strength Meter, Columbus Instruments (Columbus, Ohio). Muscle strength measurements of both fore and hind limbs were performed according to Connolly A. M. et al., 2001. Mice were brought to the testing room and allowed to acclimatize for 10 minutes before the test begins. Five measurements (fore and hind limbs) were taken from each animal. The three highest measurements for each animal were averaged to give the strength score. Between the fore and hind measurements the mice were allowed to rest for 10 minutes. All measurements were performed by the same person.

[3] = system: WT (wild type) C57BL mice; test: Motion analysis by video-recording (EthoVision), WT mice; details: WT GA vs WT saline
Description: as §2, §1, §3

glatiramer acetate [GA] was tested, and the side effects (WT and dy^2J mice) was “No other side effects were noted”, the “maximal distance in 0.2 sec period” value ([1]; HO GA treated vs untreated, p=0.016, FIG. 6) was “significantly longer” and the “total 10-minutes average distance” value ([1]; HO GA treated vs untreated, p=0.052, FIG. 5) was “significantly longer”. For the same substance, the “total ten minutes average velocity” value ([1]; HO GA-treated (n=5) vs untreated (n=4), p=0.051, FIG. 3) was “significantly faster”, the “peak velocity in 0.2 sec period” value ([1]; HO GA-treated vs HO untreated, p=0.017, FIG. 4) was “significantly faster” and the mobility ([1]; treated dy^2j mice vs untreated dy^2j mice) was “improved significantly”. The “mobility compared with wild type mice” value ([1]; treated dy^2j mice, at the end of the experiment) was “undistinguishable from the mobility of the wild type mice”, the “muscular fibrosis in muscle biopsies” value (dy^2j mice) was “significantly reduced muscular fibrosis” and the “fore limbs strength (muscle grip strength per body weight)” value ([2]; GA 200 μg IP three times a week, GA-treated HO vs untreated HO, p=0.13, FIG. 1B) was “only minimal effect”. For the same substance, the “hind limbs strength (muscle grip strength per body weight)” value ([2]; GA 200 μg IP three times a week, GA-treated HO vs untreated HO) was “Significant increase”, the “hind limbs strength (muscle grip strength per body weight)” value ([2]; GA 200 μg IP three times a week, GA-treated HO vs untreated HO, listed as Cop 1) was “improved significantly” and the “percentage of hind limbs strength, end of the experiment” value ([2]; HO treated mice, age 19 weeks, 100% = WT saline group at age seven weeks, FIG. 2) was 95.26%. The “percentage of hind limbs strength, initial” value ([2]; HO treated mice, week 7, 100% = WT saline group at age seven weeks, FIG. 2) was 62.74%, the “hind limbs muscle strength compared with wild type mice” value ([2]; treated dy^2j mice, at the end of the experiment, IP injection) was “as strong as the wild type mice” and the “peak velocity in 0.2 sec period” value ([3]; p=0.38, FIG. 4) was “not significantly different”. The “maximal distance in 0.2 sec period” value ([3]; p=0.39, FIG. 6) was “not significantly different”, the “total ten minutes average velocity” value ([3]; p=0.51, FIG. 3) was “not significantly different” and the “total 10-minutes average distance” value ([3]; p=0.51, FIG. 5) was “not significantly different”.
